Measured values as given in patent publication US20220267736A1, “PLURIPOTENT STEM CELL AGGREGATION SUPPRESSOR” (KANEKA CORPORATION, priority 2017, published 2022).

Tested on: human iPS cells (TkDN4-M)
Test: Cell aggregate size distribution (widest portion) from micrographs during suspension culture
Assay type: cell-based
Conditions: cytochalasin D 20 nM, jasplakinolide 20 nM, demecolcine 10 ng/mL; for percentage of cell aggregates whose size (diameter) was 40 μm or more and 300 μm or less, relative to the total cell aggregate count / percentage of cell aggregates whose size (diameter) was 60 μm or more and 300 μm or less / percentage of cell aggregates whose size (diameter) was 80 μm or more and 300 μm or less / percentage of cell aggregates whose size (diameter) was 100 μm or more and 300 μm or less / Number of cell aggregates by size / Percentage of cell aggregates by size: Day 1, DMSO 1%; for average ± standard deviation of cell aggregate sizes (diameters): Day 1 of culture, DMSO 1% (v/v), Y-27632 10 μM
Protocol: Cell suspensions were prepared in the same manner as in Example 2, and separately, the concentrations of the suppressors of cell aggregation were adjusted so that the final concentration of demecolcine (same as above) was 10 mg/mL (26.9 mM), the final concentration of cytochalasin D (same as above) was 0.51 mg/mL (1 mM), the concentration of DMSO (the same as above) was the stock concentration, or the final concentration of jasplakinolide (Cayman, 11705) was 0.14 mg/mL (0.2 mM). Then the concentration-adjusted cell aggregation suppressors were added to the cell suspensions so that the final concentration of demecolcine was 10 ng/mL, the final concentration of cytochalasin D was 20 nM, the final concentration of DMSO was 1% (v/v), or the final concentration of jasplakinolide was 20 nM, and the cells were seeded at a rate of 4 mL/well in a 6-well plate for suspension culture (Sumitomo Bakelite Co., Ltd., Japan). The cell-seeded plate was subjected to a swirling culture on a rotary shaker (OPTIMA, Inc., Japan) at a speed of 90 rpm along the horizontal plane to draw a circle with a swirling width (diameter) of 25 mm and cells were subjected to suspension culture under the environment of 5% CO2 and 37° C. After the next day of culture (Day 1 of culture), the culture medium was exchanged daily with a fresh culture medium (Essential 8™ culture medium containing BSA (Wako Pure Chemical Industries, Ltd.) at a final concentration of 5 mg/mL), and the culture was continued until 5 days after the start of culture. Images were obtained by phase contrast microscopy every day during culture. While 182 to 252 cell aggregates in images obtained on Day 1 of culture being observed and compared using a micrograph scale, the width (referred to as “φ”) of the widest portion of each cell aggregate was measured, distribution thereof was examined, and average±standard deviation was calculated. The concentration of glucose contained in the culture supernatant collected at the time of culture medium exchange was measured with biosensor BF-5iD (Prince Measuring Equipment Co., Ltd.) to calculate glucose consumption.

SMILES | percentage of cell aggregates whose size (diameter) was 40 μm or more and 300 μm or less, relative to the total cell aggregate count [%] | percentage of cell aggregates whose size (diameter) was 60 μm or more and 300 μm or less [%] | percentage of cell aggregates whose size (diameter) was 80 μm or more and 300 μm or less [%] | percentage of cell aggregates whose size (diameter) was 100 μm or more and 300 μm or less [%] | Number of cell aggregates by size (size range 40− μm) | Percentage of cell aggregates by size (size range 40− μm) [%] | Number of cell aggregates by size (size range 60− μm) | Percentage of cell aggregates by size (size range 60− μm) [%] | Number of cell aggregates by size (size range 80− μm) | Percentage of cell aggregates by size (size range 80− μm) [%] | Number of cell aggregates by size (size range 100− μm) | Percentage of cell aggregates by size (size range 100− μm) [%] | Number of cell aggregates by size (size range 120− μm) | Percentage of cell aggregates by size (size range 120− μm) [%] | Number of cell aggregates by size (size range 140− μm) | Percentage of cell aggregates by size (size range 140− μm) [%] | Number of cell aggregates by size (size range 160− μm) | Percentage of cell aggregates by size (size range 160− μm) [%] | Number of cell aggregates by size (size range 180− μm) | Percentage of cell aggregates by size (size range 180− μm) [%] | further results
C[S+](C)[O-] [DMSO, dimethylsulfoxide] | 100 | 100 | 98.5 | 96.0 | 0 | 0.0 | 3 | 1.5 | 5 | 2.5 | 2 | 1.0 | 24 | 12.1 | 56 | 28.1 | 56 | 28.1 | 33 | 16.6 | Number of cell aggregates by size (size range 200− μm): 12; Percentage of cell aggregates by size (size range 200− μm): 6.0%; Number of cell aggregates by size (size range 220− μm): 5; Percentage of cell aggregates by size (size range 220− μm): 2.5%; Number of cell aggregates by size (size range 240− μm): 1; Percentage of cell aggregates by size (size range 240− μm): 0.5%; Number of cell aggregates by size (size range 260− μm): 1; Percentage of cell aggregates by size (size range 260− μm): 0.5%; Number of cell aggregates by size (size range 280− μm): 1; Percentage of cell aggregates by size (size range 280− μm): 0.5%; Number of cell aggregates by size (size range 300− μm): 0; Percentage of cell aggregates by size (size range 300− μm): 0.0%; average ± standard deviation of cell aggregate sizes (diameters): 164.8±31.8 μm
C=C1[C@@H](C)[C@H]2[C@H](Cc3ccccc3)NC(=O)[C@]23[C@H](OC(C)=O)/C=C/[C@@](C)(O)C(=O)[C@@H](C)C/C=C/[C@H]3[C@@H]1O [cytochalasin D] | 100 | 96 | 88.1 | 80.6 | 10 | 4.0 | 20 | 7.9 | 19 | 7.5 | 26 | 10.3 | 60 | 23.8 | 66 | 26.2 | 40 | 15.9 | 10 | 4.0 | Number of cell aggregates by size (size range 200− μm): 0; Percentage of cell aggregates by size (size range 200− μm): 0.0%; Number of cell aggregates by size (size range 220− μm): 1; Percentage of cell aggregates by size (size range 220− μm): 0.4%; Number of cell aggregates by size (size range 240− μm): 0; Percentage of cell aggregates by size (size range 240− μm): 0.0%; Number of cell aggregates by size (size range 260− μm): 0; Percentage of cell aggregates by size (size range 260− μm): 0.0%; Number of cell aggregates by size (size range 280− μm): 0; Percentage of cell aggregates by size (size range 280− μm): 0.0%; Number of cell aggregates by size (size range 300− μm): 0; Percentage of cell aggregates by size (size range 300− μm): 0.0%; average ± standard deviation of cell aggregate sizes (diameters): 132.5±34.8 μm
CN[C@H]1CCc2cc(OC)c(OC)c(OC)c2-c2ccc(OC)c(=O)cc21 [demecolcine] | 100 | 97.3 | 93.5 | 92.4 | 5 | 2.7 | 7 | 3.8 | 2 | 1.1 | 0 | 0.0 | 2 | 1.1 | 16 | 8.8 | 37 | 20.3 | 45 | 24.7 | Number of cell aggregates by size (size range 200− μm): 38; Percentage of cell aggregates by size (size range 200− μm): 20.9%; Number of cell aggregates by size (size range 220− μm): 19; Percentage of cell aggregates by size (size range 220− μm): 10.4%; Number of cell aggregates by size (size range 240− μm): 8; Percentage of cell aggregates by size (size range 240− μm): 4.4%; Number of cell aggregates by size (size range 260− μm): 2; Percentage of cell aggregates by size (size range 260− μm): 1.1%; Number of cell aggregates by size (size range 280− μm): 0; Percentage of cell aggregates by size (size range 280− μm): 0.0%; Number of cell aggregates by size (size range 300− μm): 1; Percentage of cell aggregates by size (size range 300− μm): 0.5%; average ± standard deviation of cell aggregate sizes (diameters): 184.9±44.9 μm
C/C1=C\[C@H](C)C[C@H](C)OC(=O)C[C@H](c2ccc(O)cc2)NC(=O)[C@@H](Cc2c(Br)[nH]c3ccccc23)N(C)C(=O)[C@H](C)NC(=O)[C@@H](C)C1 [jasplakinolide] | 100 | 98.1 | 96.2 | 95.7 | 4 | 1.9 | 4 | 1.9 | 1 | 0.5 | 8 | 3.9 | 23 | 11.2 | 52 | 25.2 | 66 | 32.0 | 30 | 14.6 | Number of cell aggregates by size (size range 200− μm): 9; Percentage of cell aggregates by size (size range 200− μm): 4.4%; Number of cell aggregates by size (size range 220− μm): 4; Percentage of cell aggregates by size (size range 220− μm): 1.9%; Number of cell aggregates by size (size range 240− μm): 1; Percentage of cell aggregates by size (size range 240− μm): 0.5%; Number of cell aggregates by size (size range 260− μm): 1; Percentage of cell aggregates by size (size range 260− μm): 0.5%; Number of cell aggregates by size (size range 280− μm): 2; Percentage of cell aggregates by size (size range 280− μm): 1.0%; Number of cell aggregates by size (size range 300− μm): 1; Percentage of cell aggregates by size (size range 300− μm): 0.5%; average ± standard deviation of cell aggregate sizes (diameters): 162.7±37.2 μm
